In paper PMC10938783, “A novel pan-PI3K inhibitor KTC1101 synergizes with anti-PD-1 therapy by targeting tumor suppression and immune activation” (Molecular Cancer, 2024):

What was measured:
[1] = Liver microsome metabolic stability assay; conditions: mouse, microsomes
[2] = Plasma metabolic stability assay; assay type: in vitro ADME; conditions: mouse plasma, 37°C, 120 min incubation
Method: 495 µL of plasma was placed in a 96-well plate and pre-incubated at 37°C for 5 min.

[3] = test system: JFCR39 panel of 39 human tumor cell lines; test: JFCR39 panel growth inhibition, panel statistics; assay type: cell-based; conditions: Homo sapiens; JFCR39 panel; read-out: mean GI50 across all 39 cell lines
Method: JFCR39 drug discovery system was used to measure the growth inhibitory activities and identify the target of KTC1101. The JFCR39 panel consists of 39 cell lines seeded in 96-well plates. After 48-h treatment with KTC1101, cell growth was measured using the sulforhodamine B assay. […] The deviation of log GI50 for each cell line from the average log GI50 across the JFCR39 panel was plotted as a fingerprint. MG-MID (mean of Log GI50 values) represents the average log GI50 for all 39 cell lines. The most sensitive and least sensitive cell lines were identified by calculating the difference in their log GI50 values (Range) and the difference between the most sensitive cell line and the average GI50 on the JFCR39 panel (Delta). The fingerprint of KTC1101 was compared with the fingerprints of reference compounds in the database. The Pearson correlation coefficient (r) was calculated (n = 39).

Cc1ncc2n1-c1ccc(Cl)cc1C(c1ccccc1F)=NC2 [Midazolam, reference compound]
half-life at 1 µM [1]: 1.24 min
microsomal CLint at 1 µM [1]: 1120 µL/min/mg

CCN(CC)CCOC(=O)c1ccc(N)cc1 [Procaine, reference compound]
half-life at 1 µM [2]: 37.8 min

FC(F)c1nc2ccccc2n1-c1nc(N2CCOCC2)nc(N2CCOCC2)n1 [ZSTK474, reference compound]
GI50 [3]: 320 nM
